# PubChem BioAssay (NCI)
#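 These data come from cells grown in 96-well plates and exposed to compound for 48 hours at five concentrations. TGI marks complete inhibition of growth.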
# What was measured:
# Assay in all cases: NCI tumour cell line growth inhibition, 48 h
# CAKI-1 renal = tested on: CAKI-1 renal
# MOLT-4 leukemia = tested on: MOLT-4 leukemia
# EKVX NSCLC = tested on: EKVX NSCLC
# HCT-116 colon = tested on: HCT-116 colon
# HOP-92 NSCLC = tested on: HOP-92 NSCLC
# UACC-62 melanoma = tested on: UACC-62 melanoma
# RPMI-8226 leukemia = tested on: RPMI-8226 leukemia
# KM20L2 colon = tested on: KM20L2 colon
# HOP-18 NSCLC = tested on: HOP-18 NSCLC
# HOP-62 NSCLC = tested on: HOP-62 NSCLC
# IGROV1 ovarian = tested on: IGROV1 ovarian
# COLO 205 colon = tested on: COLO 205 colon
# CCRF-CEM leukemia = tested on: CCRF-CEM leukemia
# NCI-H226 lung = tested on: NCI-H226 lung
# OVCAR-5 ovarian = tested on: OVCAR-5 ovarian
# DMS 273 small cell lung = tested on: DMS 273 small cell lung
# OVCAR-3 ovarian = tested on: OVCAR-3 ovarian
# SN12C renal = tested on: SN12C renal
# HCT-15 colon = tested on: HCT-15 colon
# SK-MEL-5 melanoma = tested on: SK-MEL-5 melanoma
# LXFL 529 NSCLC = tested on: LXFL 529 NSCLC
# ACHN renal = tested on: ACHN renal
# OVCAR-4 ovarian = tested on: OVCAR-4 ovarian
# UACC-257 melanoma = tested on: UACC-257 melanoma
# SF-295 CNS = tested on: SF-295 CNS
# 786-0 renal = tested on: 786-0 renal
# SW-620 colon = tested on: SW-620 colon
# SF-539 CNS = tested on: SF-539 CNS
# SK-MEL-2 melanoma = tested on: SK-MEL-2 melanoma
# SK-OV-3 ovarian = tested on: SK-OV-3 ovarian
# TK-10 renal = tested on: TK-10 renal
# HT29 colon = tested on: HT29 colon
# HL-60(TB) leukemia = tested on: HL-60(TB) leukemia
# M14 melanoma = tested on: M14 melanoma
# LOX IMVI melanoma = tested on: LOX IMVI melanoma
# UO-31 renal = tested on: UO-31 renal
# KM12 colon = tested on: KM12 colon
# NCI-H522 lung = tested on: NCI-H522 lung
# SNB-75 CNS = tested on: SNB-75 CNS
# K-562 leukemia = tested on: K-562 leukemia
# U251 CNS = tested on: U251 CNS
# NCI-H23 lung = tested on: NCI-H23 lung
# OVCAR-8 ovarian = tested on: OVCAR-8 ovarian
# M19-MEL melanoma = tested on: M19-MEL melanoma
# NCI-H460 lung = tested on: NCI-H460 lung
# DLD-1 colon = tested on: DLD-1 colon
# SNB-19 CNS = tested on: SNB-19 CNS
# HCC-2998 colon = tested on: HCC-2998 colon
# MALME-3M melanoma = tested on: MALME-3M melanoma
# DMS 114 small cell lung = tested on: DMS 114 small cell lung
# A498 renal = tested on: A498 renal
# SF-268 CNS = tested on: SF-268 CNS
# SR leukemia = tested on: SR leukemia
# SK-MEL-28 melanoma = tested on: SK-MEL-28 melanoma
# A549 NSCLC = tested on: A549 NSCLC
# SNB-78 CNS = tested on: SNB-78 CNS
# RXF 393 renal = tested on: RXF 393 renal
smiles,measurement,setting,value
CCCCCCC1NN(C(C)=O)C(CCCCCC)NN1C(C)=O (stereo unspecified),TGI,CAKI-1 renal,> 100 µM
same,TGI,MOLT-4 leukemia,> 100 µM
same,TGI,EKVX NSCLC,> 100 µM
same,TGI,HCT-116 colon,> 100 µM
same,TGI,HOP-92 NSCLC,> 100 µM
same,TGI,UACC-62 melanoma,> 100 µM
same,TGI,RPMI-8226 leukemia,67.4 µM
same,TGI,KM20L2 colon,> 100 µM
same,TGI,HOP-18 NSCLC,> 100 µM
same,TGI,HOP-62 NSCLC,> 100 µM
same,TGI,IGROV1 ovarian,> 100 µM
same,TGI,COLO 205 colon,> 100 µM
same,TGI,CCRF-CEM leukemia,> 100 µM
same,TGI,NCI-H226 lung,> 100 µM
same,TGI,OVCAR-5 ovarian,> 100 µM
same,TGI,DMS 273 small cell lung,> 100 µM
same,TGI,OVCAR-3 ovarian,> 100 µM
same,TGI,SN12C renal,> 100 µM
same,TGI,HCT-15 colon,> 100 µM
same,TGI,SK-MEL-5 melanoma,> 100 µM
same,TGI,LXFL 529 NSCLC,> 100 µM
same,TGI,ACHN renal,> 100 µM
same,TGI,OVCAR-4 ovarian,> 100 µM
same,TGI,UACC-257 melanoma,> 100 µM
same,TGI,SF-295 CNS,> 100 µM
same,TGI,786-0 renal,> 100 µM
same,TGI,SW-620 colon,46.1 µM
same,TGI,SF-539 CNS,> 100 µM
same,TGI,SK-MEL-2 melanoma,> 100 µM
same,TGI,SK-OV-3 ovarian,> 100 µM
same,TGI,TK-10 renal,> 100 µM
same,TGI,HT29 colon,> 100 µM
same,TGI,HL-60(TB) leukemia,> 100 µM
same,TGI,M14 melanoma,> 100 µM
same,TGI,LOX IMVI melanoma,46.7 µM
same,TGI,UO-31 renal,> 100 µM
same,TGI,KM12 colon,> 100 µM
same,TGI,NCI-H522 lung,> 100 µM
same,TGI,SNB-75 CNS,> 100 µM
same,TGI,K-562 leukemia,> 100 µM
same,TGI,U251 CNS,> 100 µM
same,TGI,NCI-H23 lung,> 100 µM
same,TGI,OVCAR-8 ovarian,> 100 µM
same,TGI,M19-MEL melanoma,> 100 µM
same,TGI,NCI-H460 lung,33.7 µM
same,TGI,DLD-1 colon,> 100 µM
same,TGI,SNB-19 CNS,> 100 µM
same,TGI,HCC-2998 colon,> 100 µM
same,TGI,MALME-3M melanoma,> 100 µM
COc1ccc(CC#N)c(OCc2ccccc2)c1,TGI,CAKI-1 renal,> 100 µM
same,TGI,MOLT-4 leukemia,> 100 µM
same,TGI,EKVX NSCLC,> 100 µM
same,TGI,HCT-116 colon,> 100 µM
same,TGI,UACC-62 melanoma,> 100 µM
same,TGI,RPMI-8226 leukemia,> 100 µM
same,TGI,KM20L2 colon,> 100 µM
same,TGI,HOP-18 NSCLC,79.3 µM
same,TGI,HOP-62 NSCLC,> 100 µM
same,TGI,IGROV1 ovarian,> 100 µM
same,TGI,COLO 205 colon,> 100 µM
same,TGI,CCRF-CEM leukemia,> 100 µM
same,TGI,NCI-H226 lung,66 µM
same,TGI,DMS 114 small cell lung,> 100 µM
same,TGI,A498 renal,59.4 µM
same,TGI,DMS 273 small cell lung,> 100 µM
same,TGI,OVCAR-3 ovarian,> 100 µM
same,TGI,SN12C renal,> 100 µM
same,TGI,SF-268 CNS,> 100 µM
same,TGI,SK-MEL-5 melanoma,50.6 µM
same,TGI,LXFL 529 NSCLC,67 µM
same,TGI,SR leukemia,> 100 µM
same,TGI,ACHN renal,> 100 µM
same,TGI,OVCAR-4 ovarian,> 100 µM
same,TGI,UACC-257 melanoma,> 100 µM
same,TGI,SF-295 CNS,> 100 µM
same,TGI,786-0 renal,> 100 µM
same,TGI,SW-620 colon,> 100 µM
same,TGI,SF-539 CNS,> 100 µM
same,TGI,M14 melanoma,> 100 µM
same,TGI,LOX IMVI melanoma,> 100 µM
same,TGI,UO-31 renal,> 100 µM
same,TGI,KM12 colon,> 100 µM
same,TGI,NCI-H522 lung,> 100 µM
same,TGI,K-562 leukemia,> 100 µM
same,TGI,SK-MEL-28 melanoma,84.6 µM
same,TGI,A549 NSCLC,> 100 µM
same,TGI,NCI-H23 lung,> 100 µM
same,TGI,OVCAR-8 ovarian,> 100 µM
same,TGI,M19-MEL melanoma,> 100 µM
same,TGI,NCI-H460 lung,> 100 µM
same,TGI,DLD-1 colon,85 µM
same,TGI,SNB-19 CNS,> 100 µM
same,TGI,HCC-2998 colon,> 100 µM
same,TGI,MALME-3M melanoma,79 µM
CCCCC#COS(=O)(=O)c1ccc(C)cc1,TGI,CAKI-1 renal,> 100 µM
same,TGI,MOLT-4 leukemia,> 100 µM
same,TGI,EKVX NSCLC,> 100 µM
same,TGI,HCT-116 colon,> 100 µM
same,TGI,UACC-62 melanoma,> 100 µM
same,TGI,RPMI-8226 leukemia,> 100 µM
same,TGI,KM20L2 colon,> 100 µM
same,TGI,HOP-62 NSCLC,> 100 µM
same,TGI,IGROV1 ovarian,> 100 µM
same,TGI,COLO 205 colon,> 100 µM
same,TGI,CCRF-CEM leukemia,> 100 µM
same,TGI,NCI-H226 lung,84.9 µM
same,TGI,OVCAR-5 ovarian,> 100 µM
same,TGI,DMS 114 small cell lung,> 100 µM
same,TGI,A498 renal,> 100 µM
same,TGI,OVCAR-3 ovarian,> 100 µM
same,TGI,SN12C renal,> 100 µM
same,TGI,HCT-15 colon,> 100 µM
same,TGI,SF-268 CNS,> 100 µM
same,TGI,SK-MEL-5 melanoma,> 100 µM
same,TGI,LXFL 529 NSCLC,> 100 µM
same,TGI,SR leukemia,> 100 µM
same,TGI,ACHN renal,> 100 µM
same,TGI,OVCAR-4 ovarian,> 100 µM
same,TGI,UACC-257 melanoma,> 100 µM
same,TGI,SF-295 CNS,> 100 µM
same,TGI,786-0 renal,> 100 µM
same,TGI,SW-620 colon,> 100 µM
same,TGI,SF-539 CNS,> 100 µM
same,TGI,SK-MEL-2 melanoma,> 100 µM
same,TGI,SK-OV-3 ovarian,> 100 µM
same,TGI,HT29 colon,> 100 µM
same,TGI,HL-60(TB) leukemia,> 100 µM
same,TGI,M14 melanoma,> 100 µM
same,TGI,LOX IMVI melanoma,> 100 µM
same,TGI,UO-31 renal,> 100 µM
same,TGI,KM12 colon,> 100 µM
same,TGI,NCI-H522 lung,> 100 µM
same,TGI,K-562 leukemia,> 100 µM
same,TGI,U251 CNS,> 100 µM
same,TGI,A549 NSCLC,> 100 µM
same,TGI,SNB-78 CNS,> 100 µM
same,TGI,NCI-H23 lung,> 100 µM
same,TGI,OVCAR-8 ovarian,> 100 µM
same,TGI,M19-MEL melanoma,> 100 µM
same,TGI,NCI-H460 lung,> 100 µM
same,TGI,DLD-1 colon,> 100 µM
same,TGI,SNB-19 CNS,> 100 µM
same,TGI,HCC-2998 colon,> 100 µM
same,TGI,MALME-3M melanoma,> 100 µM
Cc1ccc(O)c(N=Nc2ccc(S(=O)(=O)O)cc2)n1,TGI,CAKI-1 renal,> 100 µM
same,TGI,MOLT-4 leukemia,> 100 µM
same,TGI,EKVX NSCLC,47.9 µM
same,TGI,HCT-116 colon,> 100 µM
same,TGI,HOP-92 NSCLC,> 100 µM
same,TGI,UACC-62 melanoma,> 100 µM
same,TGI,RPMI-8226 leukemia,> 100 µM
same,TGI,KM20L2 colon,> 100 µM
same,TGI,HOP-18 NSCLC,> 100 µM
same,TGI,IGROV1 ovarian,> 100 µM
same,TGI,COLO 205 colon,> 100 µM
same,TGI,CCRF-CEM leukemia,> 100 µM
same,TGI,DMS 114 small cell lung,> 100 µM
same,TGI,A498 renal,> 100 µM
same,TGI,DMS 273 small cell lung,> 100 µM
same,TGI,SN12C renal,> 100 µM
same,TGI,HCT-15 colon,> 100 µM
same,TGI,SF-268 CNS,> 100 µM
same,TGI,SK-MEL-5 melanoma,> 100 µM
same,TGI,LXFL 529 NSCLC,> 100 µM
same,TGI,ACHN renal,> 100 µM
same,TGI,SF-295 CNS,> 100 µM
same,TGI,786-0 renal,> 100 µM
same,TGI,SW-620 colon,> 100 µM
same,TGI,SF-539 CNS,> 100 µM
same,TGI,SK-OV-3 ovarian,> 100 µM
same,TGI,TK-10 renal,> 100 µM
same,TGI,RXF 393 renal,> 100 µM
same,TGI,HL-60(TB) leukemia,> 100 µM
same,TGI,M14 melanoma,> 100 µM
same,TGI,LOX IMVI melanoma,> 100 µM
same,TGI,UO-31 renal,> 100 µM
same,TGI,NCI-H522 lung,> 100 µM
same,TGI,K-562 leukemia,> 100 µM
same,TGI,SK-MEL-28 melanoma,> 100 µM
same,TGI,U251 CNS,> 100 µM
same,TGI,A549 NSCLC,> 100 µM
same,TGI,NCI-H23 lung,> 100 µM
same,TGI,OVCAR-8 ovarian,> 100 µM
same,TGI,M19-MEL melanoma,> 100 µM
same,TGI,NCI-H460 lung,> 100 µM
same,TGI,DLD-1 colon,> 100 µM
